From article PMC10076467 (EJNMMI Research, 2023)
Read-outs that look alike come from different tables or passages of the source.

Key:
GluN2B receptors [1] = target: T1, GluN2B receptors (Rattus norvegicus, UniProt P35439+Q00960); test: ED50 for pre-blocking of GluN2B radioligand uptake in rat whole brain (PET); format: in vivo; details: for ED50 in rat whole brain in vivo ^11C-(−)-NR2B-Me: radioligand ^11C-(−)-NR2B-Me; for ED50 in rat whole brain in vivo ^11C-(−)-NR2B-Me / ED50 in rat whole brain in vivo ^11C-(+)-NR2B-Me: AUC 20-90 min; for effect of pre-administration on whole rat brain radioactivity uptake of GluN2B radioligands: ^11C-NR2B-Me enantiomers (also ^11C-(S)-NR2B-SMe); for ED50 in rat whole brain in vivo ^11C-(+)-NR2B-Me: radioligand ^11C-(+)-NR2B-Me
T1 construct: from tissue; host or cells: brain of living male rats (PET imaging)
Method: (§1) For radioligand injection, a polyethylene catheter (PE 10) was inserted into the penile vein of a male rat and then secured with tissue adhesive and tape. […] Body temperature was monitored with a rectal probe. All PET scans were performed on a microPET Focus 220 scanner (Siemens Medical Solutions) (7,8). Data were acquired in listmode and reconstructed with Fourier rebinning + 2D filtered backprojection. A transmission scan was acquired before radioligand injection for attenuation correction. Dynamic scanning began at the time of a one-minute intravenous bolus injection of the radioligand under study (55 ± 19 MBq; volume 0.2 to 1.0 mL). The injected mass dose was 3 ± 1 nmol/kg. Challenge agents were administered intravenously 10 minutes before the radioligand for pre-blocking studies or 10 minutes after the radioligand for displacement studies. Tomographic images were analyzed with pixel-wise modeling computer software (PMOD 2.6; PMOD Group). Regions-of-interest in the brain were delineated, and time-activity curves calculated as SUV versus time.
(§2) Pre-blocking and displacement experiments were performed to assess radioligand target engagement and radioligand selectivity in vivo. […] Areas-under the curve (AUCs) from time-activity curves between 20 and 90 minutes were calculated for each radioligand. AUCs obtained from the same production of radioligand were scaled to the value (or mean value) for the baseline experiment to give relative values (relative AUC20–90 min). […] Where data permitted, the dose-response curves were fitted with GraphPad Prism software (version 8.1.1; GraphPad) to estimate the ED50 values. A dummy value of 100 pmol per kg body weight was used for zero concentration of the challenge agent in the construction of these dose-response curves. Numerical data are expressed as mean ± S.D. for n>2, or as mean and range for n = 2.

σ1 receptor = details: cited from earlier work
σ2 receptor = details: cited from earlier work
guinea pig σ1 receptor = guinea pig σ1 receptor (Cavia porcellus, UniProt Q60492); test: PDSP σ1 receptor binding
Description: (§3) NR2B-Me was submitted to the PDSP for assessment of binding affinity against a wide range of other receptors and binding sites. A full listing of these receptors and binding sites is given in the Supplemental Results. Detailed assay protocols are available at the PDSP website (http://pdsp.cwru.edu).
(§4) Assessment of Binding Affinity against a Wide Range of Other Receptors and Binding Sites. NR2B-Me was submitted to the National Institute of Mental Health Psychoactive Drug Screening program (NIMH-PDSP) to assess binding affinity against a wide range of other receptors and binding sites (5-HT1A, 1B, 1D, 1E, 2A, 2A agonist, 2A antagonist, 2B, 2B agonist, 2B antagonist, 2C, 2C agonist, 2C antagonist, 3, 5A, 6, 7; α2; α2β2, α2β2, α3β2, α3β4, α4β2, α4β4, α7; α1A, 1A agonist, 1B, 1B agonist, 1B antagonist, 2A-2C; AMPA*; β1-3; BZPa1-3, a5, a6, rat brain site; Ca^2+-Channel; CB1-2, D1, 2, 2 agonist, 2 antagonist, 3-5; DAT; DOR; EP1-4; GABAA,B; GPR40,41,43; H1-4; HERG; IMIDAZOLINE 1; KA-R*; KOR, KORagonist, antagonist; M1, 1 agonist, 1 antagonist, 2, 3, 3 agonist, 3 antagonist, 4, 5, 5 agonist, 5 antagonist; MDR 1; mGluR1A,2,4,5,5-cloned,5-rat brain,6,8; MOR; Na^+-Channel; NET; NK1, 1 antagonist, 2, 2 antagonist, 3, 3 antagonist; NMDA; NMDA/MK801; NT-1; OXYTOCINagonist, antagonist; PAR1agonist, antagonist; PCP; PKCA, B, D, E, G; PTHR2, Purinergicagonist, antagonist; SET; σ1,2; V1, 1 agonist, 1 antagonist, 2, 2 agonist, 2 antagonist, 3, 3 agonist, 3 antagonist, VMAT1, 2).

PC12 cell σ2 receptors = target: T2, PC12 cell σ2 receptors (Rattus norvegicus, UniProt Q5U3Y7); test: PDSP σ2 receptor binding
T2 construct: endogenous in cells; host or cells: PC12 cells
T2 sequence (Q5U3Y7 1-176): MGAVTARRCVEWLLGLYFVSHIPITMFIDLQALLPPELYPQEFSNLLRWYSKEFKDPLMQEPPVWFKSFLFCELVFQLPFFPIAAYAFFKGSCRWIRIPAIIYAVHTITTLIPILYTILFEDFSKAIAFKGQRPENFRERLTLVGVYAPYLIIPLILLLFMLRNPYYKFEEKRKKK
Description: as §3, §4

[2] = rat, cited from earlier work
σ1 receptors = target: T3, σ1 receptors (Rattus norvegicus, UniProt Q9R0C9); test: ED50 for pre-blocking of ^18F-FTC146 uptake in rat whole brain (PET); format: in vivo
T3 construct: from tissue; host or cells: brain of living male rats (PET imaging)
Method: For radioligand injection, a polyethylene catheter (PE 10) was inserted into the penile vein of a male rat and then secured with tissue adhesive and tape. For dynamic scanning, the rats were secured with tape in the scanner and kept under 1.5% isoflurane anesthesia via a nose cone. Body temperature was monitored with a rectal probe. All PET scans were performed on a microPET Focus 220 scanner (Siemens Medical Solutions) (7,8). Data were acquired in listmode and reconstructed with Fourier rebinning + 2D filtered backprojection. A transmission scan was acquired before radioligand injection for attenuation correction. Dynamic scanning began at the time of a one-minute intravenous bolus injection of the radioligand under study (55 ± 19 MBq; volume 0.2 to 1.0 mL). The injected mass dose was 3 ± 1 nmol/kg. Challenge agents were administered intravenously 10 minutes before the radioligand for pre-blocking studies or 10 minutes after the radioligand for displacement studies. Tomographic images were analyzed with pixel-wise modeling computer software (PMOD 2.6; PMOD Group). Regions-of-interest in the brain were delineated, and time-activity curves calculated as SUV versus time.
Pre-blocking and displacement experiments were performed to assess radioligand target engagement and radioligand selectivity in vivo. Normally 4 doses of 0.01 mg/kg, 0.05 mg/kg, 0.25 mg/kg, and 1.25 mg/kg were used for preblocking experiments, and only 2 doses of 0.25 mg/kg and 1.25 mg/kg were used for displacement experiments. […] […] […] […] Where data permitted, the dose-response curves were fitted with GraphPad Prism software (version 8.1.1; GraphPad) to estimate the ED50 values. A dummy value of 100 pmol per kg body weight was used for zero concentration of the challenge agent in the construction of these dose-response curves. Numerical data are expressed as mean ± S.D. for n>2, or as mean and range for n = 2.

GluN2B receptors [3] = target: T1, GluN2B receptors; test: PET displacement / pre-blocking of ^11C-NR2B-Me radioligands with Ro-25-6981, Lassen plots; format: in vivo; details: for BPND (SUVBL/SUVND−1), whole rat brain: Lassen (SUV) plots; for non-displaceable binding (X-axis intercept of Lassen plots): rat brain, pre-blocking with 0.25 mg/kg Ro-25-6981, on average; for displacement from peak value at 90 min: rat whole brain, Ro-25-6981 0.25 mg/kg i.v. 10 min after radioligand, n = 1
Method: as §1, §2

[4] = design: method as in PMID 30030340; details: rhesus monkeys, PET; cited from earlier work
[5] = PET, sixty minutes after injection
[6] = 45 min after intravenous injection
[7] = 30 min after intravenous injection

T1 sequence (Q00960 27-1482, other chains not shown): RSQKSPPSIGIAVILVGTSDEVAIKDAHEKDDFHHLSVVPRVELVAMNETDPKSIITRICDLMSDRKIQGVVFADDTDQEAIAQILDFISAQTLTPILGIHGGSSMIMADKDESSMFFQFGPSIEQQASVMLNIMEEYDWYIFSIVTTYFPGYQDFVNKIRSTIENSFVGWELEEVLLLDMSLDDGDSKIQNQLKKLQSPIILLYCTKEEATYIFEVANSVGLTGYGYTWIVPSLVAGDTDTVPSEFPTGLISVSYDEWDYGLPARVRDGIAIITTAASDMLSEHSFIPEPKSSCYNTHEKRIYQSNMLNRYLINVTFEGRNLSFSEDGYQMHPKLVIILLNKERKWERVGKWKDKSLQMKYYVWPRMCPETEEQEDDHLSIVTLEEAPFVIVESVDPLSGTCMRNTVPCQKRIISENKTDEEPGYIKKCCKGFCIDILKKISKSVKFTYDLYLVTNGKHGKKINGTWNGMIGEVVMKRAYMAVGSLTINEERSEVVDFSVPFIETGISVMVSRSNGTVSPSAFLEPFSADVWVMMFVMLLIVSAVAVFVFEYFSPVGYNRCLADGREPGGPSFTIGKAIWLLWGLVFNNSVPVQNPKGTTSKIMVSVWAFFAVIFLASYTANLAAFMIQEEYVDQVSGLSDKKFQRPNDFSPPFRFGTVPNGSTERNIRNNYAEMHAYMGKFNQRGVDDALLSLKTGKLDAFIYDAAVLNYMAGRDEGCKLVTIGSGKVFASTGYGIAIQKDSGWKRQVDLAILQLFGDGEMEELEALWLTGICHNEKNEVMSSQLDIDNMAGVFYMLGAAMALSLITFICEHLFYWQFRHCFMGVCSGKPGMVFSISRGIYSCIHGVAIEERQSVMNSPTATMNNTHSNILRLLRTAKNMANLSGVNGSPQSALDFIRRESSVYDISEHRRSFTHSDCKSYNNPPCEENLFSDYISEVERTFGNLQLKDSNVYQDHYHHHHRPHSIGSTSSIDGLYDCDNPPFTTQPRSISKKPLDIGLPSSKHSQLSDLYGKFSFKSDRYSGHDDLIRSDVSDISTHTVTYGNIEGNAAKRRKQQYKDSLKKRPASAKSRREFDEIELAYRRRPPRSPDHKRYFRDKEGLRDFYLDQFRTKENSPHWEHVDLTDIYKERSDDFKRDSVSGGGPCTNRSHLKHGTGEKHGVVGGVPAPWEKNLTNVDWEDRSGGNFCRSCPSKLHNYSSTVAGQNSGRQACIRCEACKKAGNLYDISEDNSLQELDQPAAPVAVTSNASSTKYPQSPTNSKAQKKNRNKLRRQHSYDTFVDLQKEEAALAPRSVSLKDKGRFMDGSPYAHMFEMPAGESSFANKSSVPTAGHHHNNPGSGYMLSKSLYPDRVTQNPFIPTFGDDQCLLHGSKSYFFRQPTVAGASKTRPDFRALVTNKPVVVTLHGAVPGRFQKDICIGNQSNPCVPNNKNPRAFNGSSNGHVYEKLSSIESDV
T3 sequence (Q9R0C9 whole entry): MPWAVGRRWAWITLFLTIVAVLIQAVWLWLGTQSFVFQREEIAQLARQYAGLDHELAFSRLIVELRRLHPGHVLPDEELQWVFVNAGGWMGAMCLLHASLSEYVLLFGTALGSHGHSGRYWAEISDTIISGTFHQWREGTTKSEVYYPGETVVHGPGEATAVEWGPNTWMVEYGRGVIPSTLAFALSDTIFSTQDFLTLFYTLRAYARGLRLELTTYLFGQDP
Chain of guinea pig σ1 receptor (Q60492 whole entry): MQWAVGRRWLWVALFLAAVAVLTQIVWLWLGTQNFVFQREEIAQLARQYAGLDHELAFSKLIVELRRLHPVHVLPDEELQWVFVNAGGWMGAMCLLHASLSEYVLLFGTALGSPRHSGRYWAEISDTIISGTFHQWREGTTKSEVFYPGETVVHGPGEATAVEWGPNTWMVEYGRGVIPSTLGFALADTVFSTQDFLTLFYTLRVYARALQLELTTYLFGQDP

COC(=O)C1(c2ccc(C)cc2)CC1CN1CCC(O)(c2ccccc2)CC1 (racemic) [( ±)-PPCC]
ED50 in rat whole brain in vivo ^11C-(−)-NR2B-Me (GluN2B receptors [1]; pre-blocking): > 1000 nmol/kg
Ki (σ1 receptor; reference radioligand ^3H-pentazocine, ref 45, read-out: Ki for σ1): 0.0015 µM
Ki (σ2 receptor; reference radioligand ^3H-DTG, ref 45, read-out: Ki for σ2): 0.0508 µM

COc1ccc2c(c1)CCN(CCCCc1ccc(C)cc1)CC2O (single isomer, unassigned; (+)) [(+)-NR2B-Me]
Ki (guinea pig σ1 receptor): 0.091 µM
Ki (PC12 cell σ2 receptors): 0.1 µM

COc1ccc2c(c1)CCN(CCCCc1ccc(C)cc1)CC2O (single isomer, unassigned; (-)) [(−)-NR2B-Me]
Ki (guinea pig σ1 receptor): 0.042 µM
Ki (PC12 cell σ2 receptors): 0.11 µM

CC(C)=CCN1CC[C@]2(C)c3cc(O)ccc3C[C@H]1[C@H]2C [(+)-Pentazocine]
ED50 in rat whole brain in vivo ^11C-(−)-NR2B-Me (GluN2B receptors [1]; pre-blocking): > 1000 nmol/kg

COc1ccc2c(c1)CCN(CCCCc1ccc(SC)cc1)C[C@@H]2O [(R)-NR2B-SMe]
Ki (σ1 receptor; read-out: σ1 Ki): 0.088 µM
Ki (σ2 receptor; read-out: σ2 Ki): 0.11 µM

[11CH3]Oc1ccc2c(c1)CCN(CCCCc1ccccc1)C[C@@H]2O [(R)-^11C-Me-NB1]
radioactivity concentration in cerebellum as % of that in cortex [2, 5]: 79%
radioactivity concentration in cerebellum as % of that in hippocampus [2, 5]: 74%
radioactivity concentration in cerebellum as % of that in striatum [2, 5]: 75%
radioactivity concentration in cerebellum as % of that in thalamus [2, 5]: 83%

Oc1ccc2c(c1)CCN(CCCCc1ccc([18F])cc1)C[C@@H]2O [(R)-^18F-PF-NB1]
radioactivity in cerebellum as % of that in cortex [2, 6]: 85%
radioactivity in cerebellum as % of that in hippocampus [2, 6]: 110%
radioactivity in cerebellum as % of that in striatum [2, 6]: 95%
radioactivity in cerebellum as % of that in thalamus [2, 6]: 92%

COc1ccc2c(c1)CCN(CCCCc1ccc(SC)cc1)C[C@H]2O [(S)-NR2B-SMe]
ED50 versus ^18F-FTC146 (σ1 receptors; rat whole brain): exceeded 1 µmol per kg body weight
Ki (σ1 receptor; read-out: σ1 Ki): 0.024 µM
Ki (σ2 receptor; read-out: σ2 Ki): 0.14 µM

CN(C)CCN(C)CCc1ccc(Cl)c(Cl)c1 [BD1047]
effect of pre-administration on whole rat brain radioactivity uptake of GluN2B radioligands (GluN2B receptors [1]): minimal effects
ED50 in rat whole brain in vivo ^11C-(+)-NR2B-Me (GluN2B receptors [1]; pre-blocking): 555 nmol/kg
ED50 in rat whole brain in vivo ^11C-(−)-NR2B-Me (GluN2B receptors [1]; pre-blocking): 900 nmol/kg
ED50 in rat whole brain in vivo ^11C-(−)-NR2B-SMe (GluN2B receptors [1]; pre-blocking, radioligand as printed in Table 3 head): > 1000 nmol/kg
ED50 in rat whole brain in vivo ^18F-FTC146 (σ1 receptors; radioligand ^18F-FTC146, AUC 20-120 min): 169 nmol/kg
Ki (σ1 receptor; reference radioligand ^3H-pentazocine, ref 39, read-out: Ki for σ1): 0.0009 µM
Ki (σ2 receptor; reference radioligand ^3H-DTG, ref 39, read-out: Ki for σ2): 0.047 µM

O=C(OCCN1CCOCC1)C1(c2ccccc2)CCCCC1 [PRE-084]
ED50 in rat whole brain in vivo ^11C-(−)-NR2B-Me (GluN2B receptors [1]; pre-blocking): > 1000 nmol/kg

COc1ccc(CCN2CCN(CCCc3ccccc3)CC2)cc1OC [SA4503]
effect of pre-administration on whole rat brain radioactivity uptake of GluN2B radioligands (GluN2B receptors [1]): strong pre-blocking effects
ED50 in rat whole brain in vivo ^11C-(+)-NR2B-Me (GluN2B receptors [1]; pre-blocking): 41 nmol/kg
ED50 in rat whole brain in vivo ^11C-(−)-NR2B-Me (GluN2B receptors [1]; pre-blocking): 43 nmol/kg
Ki (σ1 receptor; reference radioligand ^3H-pentazocine, ref 38, 43, read-out: Ki for σ1): 0.0046 µM
Ki (σ1 receptor; reference radioligand ^3H-pentazocine, ref 41, 42, read-out: Ki for σ1): 0.0174 µM
Ki (σ2 receptor; reference radioligand ^3H-DTG, ref 38, 43, read-out: Ki for σ2): 0.063 µM
Ki (σ2 receptor; reference radioligand ^3H-DTG, ref 41, 42, read-out: Ki for σ2): 1.78 µM

OC12C3C4CC5C6C4C1C6C(C53)N2CCc1cccc(F)c1 (stereo not drawn) [TC1]
effect of pre-administration on whole rat brain radioactivity uptake of GluN2B radioligands (GluN2B receptors [1]): strong pre-blocking effects
ED50 in rat whole brain in vivo ^11C-(+)-NR2B-Me (GluN2B receptors [1]; pre-blocking): 64 nmol/kg
ED50 in rat whole brain in vivo ^11C-(−)-NR2B-Me (GluN2B receptors [1]; pre-blocking): 48 nmol/kg
Ki (σ1 receptor; reference radioligand ^3H-pentazocine, ref 40, read-out: Ki for σ1): 0.01 µM
Ki (σ2 receptor; reference radioligand ^3H-DTG, ref 40, read-out: Ki for σ2): 0.37 µM

COc1ccc2c(c1)CCN(CCCCc1ccc([11CH3])cc1)CC2O (stereo not drawn) [^11C-(+)-NR2B-Me]
BPND (SUVBL/SUVND−1), whole rat brain (GluN2B receptors [3]): 5
non-displaceable binding (X-axis intercept of Lassen plots) (GluN2B receptors [3]): about 0.42 SUV
displacement from peak value at 90 min (GluN2B receptors [3]): 46%

COc1ccc2c(c1)CCN(CCCCc1ccc([11CH3])cc1)CC2O (stereo not drawn) [^11C-(−)-NR2B-Me]
BPND (SUVBL/SUVND−1), whole rat brain (GluN2B receptors [3]): 5
non-displaceable binding (X-axis intercept of Lassen plots) (GluN2B receptors [3]): about 0.42 SUV
displacement from peak value at 90 min (GluN2B receptors [3]): 63%

COc1ccc2c(c1)CCN(CCCCc1ccccc1[18F])C[C@@H]2O [^18F-(R)-OF-Me-NB1]
SUVR relative to cerebellum, cortex [4]: 1.37
SUVR relative to cerebellum, hippocampus [4]: 1.36
SUVR relative to cerebellum, striatum [4]: 1.30
SUVR relative to cerebellum, thalamus [4]: 1.33
radioactivity in cerebellum as % of that in cortex [2, 7]: 73%
radioactivity in cerebellum as % of that in hippocampus [2, 7]: 74%
radioactivity in cerebellum as % of that in striatum [2, 7]: 77%
radioactivity in cerebellum as % of that in thalamus [2, 7]: 75%

(+)-SKF10047
Ki (σ1 receptor; reference radioligand ^3H-pentazocine, ref 48, read-out: Ki for σ1): 0.048 µM
Ki (σ2 receptor; reference radioligand ^3H-DTG, ref 48, read-out: Ki for σ2): 0.625 µM
